Among the test systems are LXFL 529; SNB-78; DMS-114; HOP-18; RXF 631; KM-20L2; M19-MEL; XF498; DLD-1.
Common to all, as to assay: DTP human tumour cell line panel, 48 h

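The compound was tested at five concentrations on cells cultured in 96-well plates, with a 48-hour exposure period. Here, GI50 denotes the concentration required for 50% inhibition of growth.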 Activity calls are given as the source filed them. No stated cut-off is given here; in the data, active = GI50 up to about 1.1 µM and inactive = higher.

Regarding `COC(=O)C(=O)C(C(=O)C(=O)Nc1cc(C)ccc1C)c1nc2ccc(C(=O)c3ccccc3)cc2nc1O` (centres undefined), the GI50 was 43.5 µM (inactive) with LXFL 529; 58.6 µM (inactive) in the assay with SNB-78; 51.4 µM (inactive) in the assay with DMS-114; 23.8 µM (inactive) in the assay with HOP-18; > 100 µM (inactive) with RXF 631; > 100 µM (inactive) in the assay with KM-20L2. Further, in the assay on M19-MEL, the GI50 was 88.7 µM (inactive).

For the compound `CC(C)N1CCOC(c2ccc(O)c(O)c2)C1` (centres undefined), the GI50 with LXFL 529, in the assay with XF498, in the assay with SNB-78, in the assay on DMS-114, with DLD-1 and with RXF 631 was > 100 µM (inactive) in each case. The GI50 in the assay on KM-20L2 and in the assay on M19-MEL was > 100 µM (inactive) each time.

As to `CC(C)(C)[C@H]1CO[C@]2(c3ccccc3)[C@@H]3C[C@@H]3C(=O)N12`, the GI50 in the assay with LXFL 529, in the assay on XF498, in the assay with DMS-114, in the assay with DLD-1, in the assay on KM-20L2 and in the assay with M19-MEL was > 100 µM (inactive) throughout.

Turning to `NC(=S)N/N=C1/C(=O)N(c2ccc(Cl)cc2Cl)C(=O)C(=O)C1c1nc2ccccc2s1` (centres undefined), the GI50 was > 100 µM (inactive) in the assay with LXFL 529; > 100 µM (inactive) with XF498; > 100 µM (inactive) with SNB-78; > 100 µM (inactive) in the assay on DMS-114; 98.4 µM (inactive) in the assay with HOP-18; > 100 µM (inactive) in the assay with KM-20L2. The GI50 in the assay with M19-MEL is > 100 µM (inactive).

`O=C1NC(=O)C2C1c1[nH]c3ccccc3c1C1CCCC12` (centres undefined): the GI50 with LXFL 529 is 6.37 µM (inactive); with XF498, 0.538 µM (active); in the assay on SNB-78, 6.35 µM (inactive); in the assay on DMS-114 it was 1.35 µM (inactive); with DLD-1, 3.87 µM (inactive); in the assay with HOP-18, 25.3 µM (inactive). The values for the GI50 in the assay on RXF 631 and with M19-MEL were 3.44 µM (inactive) and 0.971 µM (active), respectively.

`COc1cc(Cl)cc(N(O)C(C)=O)c1OCc1ccccc1`: the GI50 was 75.9 µM (inactive) in the assay with LXFL 529; 36.9 µM (inactive) in the assay on XF498; > 100 µM (inactive) with SNB-78; 25.6 µM (inactive) in the assay on DMS-114; > 100 µM (inactive) in the assay on DLD-1; > 100 µM (inactive) in the assay with HOP-18. Also, the GI50 in the assay on KM-20L2 is 83.2 µM (inactive); in the assay on M19-MEL, 70.8 µM (inactive).

As for `COc1ccc(NC(=O)CC/C(CC(=O)C(C)(C)C)=N\NC(=O)C(=O)NN)cc1`, the GI50 in the assay with LXFL 529, with SNB-78, with DMS-114, in the assay on DLD-1, with HOP-18 and with RXF 631 was > 100 µM (inactive) in each case. The GI50 in the assay with KM-20L2 and in the assay on M19-MEL was > 100 µM (inactive) throughout.

For `C[N+](C)(C)CC(=O)N/N=C(\C(=O)Nc1ccc(Cl)cc1)C1C(=O)N(c2ccccc2)N=C1N` (centres undefined), the GI50 with LXFL 529, in the assay on SNB-78, in the assay with DMS-114, with DLD-1, in the assay with KM-20L2 and in the assay with M19-MEL was > 100 µM (inactive) throughout.

As for `CN(C(=O)C12C3C4C1C1C2C3C41I)C(C)(C)C` (centres undefined), the GI50 in the assay on LXFL 529 is > 87.1 µM (inactive); in the assay with XF498 it was > 61.9 µM (inactive); in the assay on SNB-78, > 100 µM (inactive); in the assay on DMS-114, > 59 µM (inactive); in the assay on DLD-1, > 100 µM (inactive); in the assay on HOP-18 it was > 100 µM (inactive). Further, the GI50 with RXF 631 is 53.2 µM (inactive); in the assay on KM-20L2, > 89.3 µM (inactive); in the assay with M19-MEL, > 100 µM (inactive).

Take `N#CC(C(=O)/C(=N/NC(=O)c1ccccc1O)C(C#N)c1ccccc1)c1ccccc1` (centres undefined): the GI50 in the assay on LXFL 529, in the assay on XF498, with SNB-78, in the assay on DMS-114, in the assay with DLD-1 and in the assay with HOP-18 was > 100 µM (inactive) each time. Further, the GI50 in the assay with RXF 631, in the assay with KM-20L2 and in the assay on M19-MEL was > 100 µM (inactive) throughout.

Consider `Cc1nc(N)sc1C(=O)/C=C/c1ccc([N+](=O)[O-])cc1`, for which the GI50 with SNB-78, in the assay with DMS-114, in the assay on DLD-1, in the assay with HOP-18, in the assay on KM-20L2 and with M19-MEL was > 100 µM (inactive) each time.

Turning to `O=c1[nH]cnc2c(COCCO)c[nH]c12`, the GI50 with LXFL 529, in the assay on XF498, with SNB-78, in the assay with DMS-114, in the assay on DLD-1 and in the assay on HOP-18 was > 100 µM (inactive) in each case. Moreover, the GI50 in the assay on RXF 631, with KM-20L2 and in the assay with M19-MEL was > 100 µM (inactive) throughout.

For `CN(C)/C=C/C(=CC=[N+](C)C)/C=C/N(C)C.[O-][Cl+3]([O-])([O-])[O-]`, the GI50 in the assay on LXFL 529, with XF498, in the assay on SNB-78, in the assay on DLD-1 and in the assay with RXF 631 was > 100 µM (inactive) each time.

For the compound `COC(=O)C(C(=O)Cc1ccccc1[N+](=O)[O-])C(=O)OC`, the GI50 in the assay on LXFL 529, in the assay on XF498, in the assay with DLD-1, in the assay on HOP-18, in the assay on RXF 631 and with KM-20L2 was > 100 µM (inactive) each time. The GI50 in the assay on M19-MEL is > 100 µM (inactive).

As to `Cc1c(N)c(C#N)c2n(C)c3ncccc3n2c1=O`, the GI50 in the assay on LXFL 529, in the assay with XF498, with SNB-78, with DLD-1, in the assay on HOP-18 and in the assay on KM-20L2 was > 100 µM (inactive) each time. Also, the GI50 with M19-MEL was > 100 µM (inactive).

For the compound `CCOC(=O)C1(C(=O)OCC)C(C(C)(C)C)=C(C)c2ccccc21`, the GI50 in the assay on LXFL 529 is 11.6 µM (inactive); in the assay on XF498, 12.6 µM (inactive); with DMS-114 it was 11.5 µM (inactive); in the assay on DLD-1, 11.8 µM (inactive); in the assay on HOP-18 it was 29.1 µM (inactive); with RXF 631, 13.7 µM (inactive). The figures for the GI50 in the assay on KM-20L2 and in the assay with M19-MEL were 13.5 µM (inactive) and 14.1 µM (inactive), respectively.

Turning to `COC(=O)C1=CC2C(=O)OC1CC2C#N` (centres undefined), the GI50 with LXFL 529, in the assay on XF498, in the assay on SNB-78, in the assay with DMS-114, in the assay on DLD-1 and with HOP-18 was > 100 µM (inactive) throughout. Moreover, the GI50 with KM-20L2 was > 100 µM (inactive).

For `CCOC(=O)c1c2ccc(/C=C/C(=O)OC)ccc-2c(C(=O)OCC)c1N`, the GI50 in the assay on LXFL 529, in the assay on DMS-114, with DLD-1, with HOP-18, in the assay on KM-20L2 and in the assay on M19-MEL was > 100 µM (inactive) each time.

Take `CN(C)CC1CCC(CN(C)C)C1=NO` (centres undefined): the GI50 with LXFL 529, with SNB-78, in the assay on DMS-114, in the assay on DLD-1, with HOP-18 and in the assay with KM-20L2 was > 100 µM (inactive) throughout. Further, the GI50 in the assay on M19-MEL was > 100 µM (inactive).

On to `NC(=S)N/N=C/C(=C/Nc1ccccc1)[N+](=O)[O-]`, for which the GI50 is > 100 µM (inactive) with LXFL 529; > 100 µM (inactive) with XF498; 15.7 µM (inactive) with DMS-114; > 100 µM (inactive) in the assay with DLD-1; > 100 µM (inactive) with KM-20L2; > 100 µM (inactive) in the assay on M19-MEL.

Take `CSC(=Nc1nnc(-c2ccc([N+](=O)[O-])cc2)s1)SC`: the GI50 in the assay on LXFL 529 is 37 µM (inactive); with XF498 it was 21.6 µM (inactive); with SNB-78 it was 12.4 µM (inactive); with DMS-114 it was 25.9 µM (inactive); in the assay with DLD-1 it was 34.7 µM (inactive); in the assay on HOP-18 it was 5.64 µM (inactive). Also, the GI50 in the assay on KM-20L2 and in the assay on M19-MEL was > 100 µM (inactive) in each case.

On to `CC(C)NCCCC(C)Nc1ccnc2ccc3nn(C)nc3c12` (centres undefined), for which the GI50 was 57.1 µM (inactive) in the assay on LXFL 529; > 100 µM (inactive) in the assay with XF498; 43.1 µM (inactive) in the assay with SNB-78; 61.7 µM (inactive) in the assay with DMS-114; 71.9 µM (inactive) in the assay on DLD-1; 9.4 µM (inactive) in the assay on HOP-18. Also, the results for the GI50 in the assay with KM-20L2 and in the assay with M19-MEL were > 10 µM (inactive) and 84.9 µM (inactive), respectively.

On to `O=C(Nc1cc(Cl)cc(Cl)c1)/C(Cc1nc2ccccc2nc1O)=N/NC(=O)c1ccncc1`, for which the GI50 with LXFL 529, with SNB-78, in the assay with DMS-114, in the assay on DLD-1, with RXF 631 and with KM-20L2 was > 100 µM (inactive) throughout. In the assay with M19-MEL, the GI50 is > 100 µM (inactive).

On to `O=C(/C=C/c1ccc(Cl)cc1)c1ccc(Cl)c(Cl)c1`, for which the GI50 is 18.9 µM (inactive) in the assay with LXFL 529; > 10 µM (inactive) with SNB-78; 23.6 µM (inactive) in the assay on DMS-114; 15 µM (inactive) in the assay on DLD-1; 41.2 µM (inactive) in the assay with KM-20L2; 27.8 µM (inactive) with M19-MEL.

For the compound `CCCCCCCC(=O)OCC1OC(n2cc(F)c(=O)[nH]c2=O)C(NC(=O)OCc2ccccc2)C(O)C1O` (centres undefined), the GI50 in the assay with LXFL 529 is 31.3 µM (inactive); with SNB-78, > 100 µM (inactive); in the assay on DMS-114 it was 41.6 µM (inactive); in the assay on KM-20L2, 47.1 µM (inactive); with M19-MEL, 56.8 µM (inactive).

For `COC1(C)Cc2c(c(C)c(O)c3c2C(=O)C=C(Cl)C3=O)O1` (centres undefined), the GI50 in the assay with LXFL 529 is 15.1 µM (inactive); in the assay on XF498, 23.6 µM (inactive); in the assay on DMS-114, 28 µM (inactive); in the assay with DLD-1 it was 15.7 µM (inactive); in the assay with KM-20L2 it was > 100 µM (inactive); in the assay on M19-MEL, 16.4 µM (inactive).

As usually defined, the GI50 is the concentration at which growth is held to half of that of the control.

The values above are taken from ChEMBL document CHEMBL1201862, “PubChem BioAssay data set” (2004).
